Key:
[1] = Oral administration test of the drug, concentration in blood
Text: For example, in Example 18 of Japanese Patent Application Laid-open No. 173873/1991, the pyrimidinedione derivative is sufficiently mixed with lactose and starch, and the resultant mixture is then filled into capsules to manufacture the desired drug. The present inventors actually carried out an oral administration test for the drug.

[2] = Solubility in Japanese pharmacopoeia test liquids; assay type: physicochemical
Text: For example, the above pyrimidinedione derivative is a basic drug, and has general characteristics that it is easily soluble on an acid side of a pH but very little soluble on a neutral side or an alkaline side. That is to say, in the digestive organs, the pyrimidinedione derivative is easily dissolved and released in the stomach owing to an acid therein, but the dissolution and the release of the pyrimidinedione derivative deteriorate in the intestines because the intestines are a neutral or an alkaline state. Furthermore, the deterioration of the solubility of the pyrimidinedione derivative with the increase of the pH is remarkable.

Question: Which results are given for `Cn1c(NCCN(CCO)CCCc2ccc([N+](=O)[O-])cc2)cc(=O)n(C)c1=O` [the pyrimidinedione derivative, 1,3-dimethyl-6-{2-{N-(2-hydroxyethyl)-N-[3-(4-nitrophenyl)propyl]amino}ethylamino}-2,4-(1H,3H)-pyrimidinedione]?
Answer: Tmax [1]: ≤ 30 min; solubility ([2]; jp test liquid no. 1, Japanese pharmacopoeia test liquid No. 1 (pH = 1.2)): ≥ 1000 mg/mL; solubility ([2]; jp test liquid no. 2, Japanese pharmacopoeia test liquid No. 2 (pH = 6.8)): ≤ 0.1 mg/mL

Source: EP0640341A1, “Sustained release pharmaceutical composition and process for producing same” (priority 1993, dated 1995)
